Measured values from patent publication US20180186769A1, “6-AMINO-5-FLUORO-5-(FLUOROMETHYL)-2,3,4,5-TETRAHYDROPYRIDIN-2-YL-PHENYL-5-(METHOXY-D3)-PYRAZINE-2-CARBOXAMIDES AND FLUORINATED DERIVATIVES THEREOF AS BACE1 INHIBITORS” (H. Lundbeck A/S, priority 2016, published 2018).
Where two headings read alike, the source gives them in different places.

What was measured:
[1] = Clearance in microsomes, human; type: in vitro ADME; settings: 1 microM, read-out: CLint, Human (L/h/kg) ± SD (converted)
Description: (§1) Deuterated compounds were compared to their non-deuterated parent counterparts to determine the impact of deuteration on clearance results

[2] = Clearance in microsomes, dog; type: in vitro ADME; settings: 1 microM, read-out: CLint, Dog (L/h/kg) ± SD (converted)
Description: as §1

[3] = Clearance in hepatocytes, rat; type: in vitro ADME; settings: read-out: CLint, Rat (L/h/kg) ± SD (converted)
Description: as §1

[4] = Bioanalysis of brain and plasma samples (UPLC-MS/MS); type: in vivo, Sprague Dawley rats; settings: male, po, rat, p.o.; for Kp at 0.5 h / Kp at 1 h / Kp at 3 h / Kp at 6 h / Kp at 12 h: read-out: Brain/Plasma ratio
Procedure: Young adult Male Sprague Dawley rats of approximately 250 g weight were purchased from Charles River and received vehicle (2.5% HP betaCD+1M MeSO4, pH 2.5) or 0-40 mg/kg of test compounds (dissolved in vehicle) by oral gavage (p.o). The compounds are dosed at a volume of 5 ml/kg. Cohorts of 5-10 animals were established for each treatment condition.
Studies were set up as acute dose response treatment studies were samples were taken at T=180 minutes after initial dosing, or as 12 h or 24 h timecourse treatment studies. At the end of the test period, the animals were stunned and decapitated with a guillotine. Trunk-blood was sampled in EDTA coated tubes after decapitation of the animal. The blood was centrifuged at 2200G at 4° C. for 15 minutes and the plasma was collected and frozen at −80° C. The blood was aliquoted for Aβ ELISA and DMPK analysis. Immediately following sacrifice, the brain was extracted and split into 2 halves. The left half was dissected; with the front forebrain taken for Aβ ELISA and the remainder used for DMPK analysis. These samples were also snap frozen on dry ice and stored at −80° C. until use for analysis. The right hemibrains were snap frozen on dry ice and stored at −80° C. for independent confirmatory Aβ ELISA evalution.
TC was determined in plasma and brain homogenate using UltraPerformance LC® (UPLC®) chromatography followed by tandem-MS (MS/MS) detection.
Brain homogenate was prepared by homogenizing the brain 1:4 (v/v) with water:2-propanol:DMSO (50:30:20 v/v/v) followed by centrifugation and collection of the supernatant. Calibration standards and QC samples were prepared using a Hamilton robot. 150 μL of ISTD in acetonitrile (1 ng/mL ISTD) was added to 25 μL of calibration standards, QC samples and test samples (plasma and brain homogenate) using a Biomek robot. After centrifugation (6200 g, 4° C., 20 min) 100 μL supernatant from each sample was transferred to a new plate and mixed with 100 μL water with 0.1% formic acid using a Biomek robot (method file InVivo transfer). After a quick centrifugation (6200 g, 4° C., 5 min) the samples were placed in the auto-sampler.
MS/MS detection was done with an Applied Biosystems Sciex API 4000 instrument in positive-ion electrospray ionisation mode. TC and ISTD were detected at a parent>daughter mass to charge ratio (m/z). Nitrogen was used for the nebulizer and collision gases. The peak area correlated linearly with the plasma and brain concentration of the analytes in the range of 1.00-1000 ng/mL plasma and 5.00-5000 ng/g brain (corrected for dilution). If the plasma/brain sample drug concentration was above 1000 ng/mL or 5000 ng/g, the sample was diluted appropriately in blank plasma/blank brain homogenate before analysis.

[5] = biological target: BACE1 (Homo sapiens, UniProt P56817); assay: BACE1 efficacy assay (FRET-based); type: biochemical; parameters: purchased Life Technologies P2985; settings: 10 μM test compound
Procedure: The efficacy assay was performed as a FRET-based assay using a commercially available BACE1 kit (Life Technologies, P2985). 2 μl test compound at 10 μM (final concentration) and 15 μl BACE1 enzyme from the kit (final concentration 3 nM) were preincubated for 15 minutes at room temperature before addition of 15 μl of substrate from the kit (250 nM final concentration) and incubated for additional 90 minutes at room temperature. The assay plate was subsequently read in a Pherastar (Ex540/Em590). The enzyme activity observed in presence of test compound were normalized to the enzyme activity observed in presence of buffer and 10 μM (final concentration) of the high affinity BACE1 reference inhibitor (S)-6-[3-Chloro-5-(5-prop-1-ynyl-pyridin-3-yl)-thiophen-2-yl]-2-imino-3,6-dimethyl-tetrahydropyrimidin-4-one, respectively. The efficacy of the test compounds was evaluated at 10 μM (final concentration) and defined as the percent inhibition of the enzyme activity using the equation % inhibition=100%−normalized enzyme activity in percent.

[6] = Sprague Dawley, brain and plasma, 10 mg/kg
[7] = Sprague Dawley, brain, 10 mg/kg, read-out: Mean rat brain conc.
[8] = Sprague Dawley, plasma, 10 mg/kg, read-out: Mean rat plasma conc.
[9] = Sprague-Dawley, brain, 20 mg/kg, read-out: Mean rat brain conc.
[10] = Sprague-Dawley, brain, 40 mg/kg, read-out: Mean rat brain conc.
[11] = Sprague-Dawley, brain/plasma, 20 mg/kg
[12] = Sprague-Dawley, brain/plasma, 40 mg/kg
[13] = Sprague-Dawley, plasma, 20 mg/kg, read-out: Mean rat plasma conc.
[14] = Sprague-Dawley, plasma, 40 mg/kg, read-out: Mean rat plasma conc.

BACE1, sequence (P56817 46-501): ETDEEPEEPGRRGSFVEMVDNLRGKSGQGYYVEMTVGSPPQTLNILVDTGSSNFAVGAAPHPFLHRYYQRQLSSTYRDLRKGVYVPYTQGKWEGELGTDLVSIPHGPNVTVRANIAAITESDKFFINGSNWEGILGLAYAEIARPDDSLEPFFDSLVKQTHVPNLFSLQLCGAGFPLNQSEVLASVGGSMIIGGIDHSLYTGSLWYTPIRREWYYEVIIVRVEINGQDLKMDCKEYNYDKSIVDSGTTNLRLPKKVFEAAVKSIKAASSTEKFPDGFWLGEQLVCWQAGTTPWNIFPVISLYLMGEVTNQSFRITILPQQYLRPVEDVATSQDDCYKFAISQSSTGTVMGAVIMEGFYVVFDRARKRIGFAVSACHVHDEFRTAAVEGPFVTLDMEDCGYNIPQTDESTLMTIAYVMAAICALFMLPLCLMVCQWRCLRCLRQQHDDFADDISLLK

CLint scaled at 1 µM [1]: 0.2 L/h/kg
CLint scaled at 1 µM [2]: 5 L/h/kg
CLint scaled at 0.1 µM ([3]; 0.1 microM): 1.5 L/h/kg
CLint scaled at 0.3 µM ([3]; 0.3 microM): 1.2 L/h/kg
CLint scaled at 1 µM ([3]; 1 microM): < 0.4 L/h/kg
Kp at 0.5 h [4, 6]: 1.8
Kp at 1 h [4, 6]: 2.3
Kp at 3 h [4, 6]: 2.1
Kp at 6 h [4, 6]: 1.9
Kp at 12 h [4, 6]: 1.7
concentration at 0.5 h [4, 7]: 550 ng/g
concentration at 1 h [4, 7]: 1100 ng/g
concentration at 3 h [4, 7]: 700 ng/g
concentration at 6 h [4, 7]: 430 ng/g
concentration at 12 h [4, 7]: 140 ng/g
concentration at 0.5 h [4, 8]: 300 ng/mL
concentration at 1 h [4, 8]: 500 ng/mL
concentration at 3 h [4, 8]: 340 ng/mL
concentration at 6 h [4, 8]: 230 ng/mL
concentration at 12 h [4, 8]: 79 ng/mL
concentration at 0.5 h [4, 9]: 1530 ng/g
concentration at 1 h [4, 9]: 2380 ng/g
concentration at 3 h [4, 9]: 1960 ng/g
concentration at 6 h [4, 9]: 1540 ng/g
concentration at 12 h [4, 9]: 438 ng/g
concentration at 0.5 h [4, 10]: 2500 ng/g
concentration at 1 h [4, 10]: 2800 ng/g
concentration at 3 h [4, 10]: 3000 ng/g
concentration at 6 h [4, 10]: 3700 ng/g
concentration at 12 h [4, 10]: 1100 ng/g
Kp at 0.5 h [4, 11]: 2.9
Kp at 1 h [4, 11]: 3.9
Kp at 3 h [4, 11]: 3.4
Kp at 6 h [4, 11]: 3.2
Kp at 12 h [4, 11]: 2.7
Kp at 0.5 h [4, 12]: 2.8
Kp at 1 h [4, 12]: 3.1
Kp at 3 h [4, 12]: 2.8
Kp at 6 h [4, 12]: 3
Kp at 12 h [4, 12]: 2.5
concentration at 0.5 h [4, 13]: 532 ng/mL
concentration at 1 h [4, 13]: 614 ng/mL
concentration at 3 h [4, 13]: 572 ng/mL
concentration at 6 h [4, 13]: 477 ng/mL
concentration at 12 h [4, 13]: 159 ng/mL
concentration at 0.5 h [4, 14]: 740 ng/mL
concentration at 1 h [4, 14]: 880 ng/mL
concentration at 3 h [4, 14]: 1100 ng/mL
concentration at 6 h [4, 14]: 1200 ng/mL
concentration at 12 h [4, 14]: 410 ng/mL
inhibition at 10 µM [5]: 100%
SMILES: [2H]C([2H])([2H])Oc1cnc(C(=O)Nc2ccc(F)c([C@]3(C)CC[C@@](F)(CF)C(N)=N3)c2)cn1 [Example 1, N-(3-((2S,5S)-6-amino-5-fluoro-5-(fluoromethyl)-2-methyl-2,3,4,5-tetrahydropyridin-2-yl)-4-fluorophenyl)-5-(methoxy-d3)pyrazine-2-carboxamide]
